From patent publication US20130095059A1, “INHALED NO DONOR KMUPS DERIVATIVE PREVENTING ALLERGIC PULMONARY VASCULAR AND BRONCHIAL INFLAMMATION VIA SUPPRESSED CYTOKINES, INOS AND INFLAMMATORY CELL COUNTS IN ASTHMA MODEL” (priority 2007, published 2013)

What was measured:
Assay type in all cases: cell-based
Details in all cases: 10 μM, 120 min; without treatment control 100 %
eNOS = assay: Protein expression (optical density %) after KMUPs salts, eNOS
ROCKII = assay: Protein expression (optical density %) after KMUPs salts, ROCKII
PDE-5A = assay: Protein expression (optical density %) after KMUPs salts, PDE-5A

| SMILES | eNOS protein expression, optical densitivity % (eNOS) [%] | ROCKII protein expression, optical densitivity % (ROCKII) [%] | PDE-5A protein expression, optical densitivity % (PDE-5A) [%] |
| --- | --- | --- | --- |
| Cn1c(=O)c2c(ncn2CCN2CCN(c3ccccc3Cl)CC2)n(C)c1=O.O=C(O)c1cccnc1 [KMUP-1-nicotinic acid, 7-[2-[4-(2-chlorobenzene)piperazinyl]ethyl]-1,3-dimethylxanthine-Nicotinic acid] | 158 ± 12.4 | 41 ± 2.5 | 62 ± 4.8 |
| Cn1c(=O)c2c(ncn2CCN2CCN(c3ccc([N+](=O)[O-])cc3)CC2)n(C)c1=O.O=C(O)c1cccnc1 [KMUP-3-nicotinic acid, 7-[2-[4-(4-nitrobenzene)piperazinyl]ethyl]-1,3-dimethylxanthine-Nicotinic acid] | 145 ± 7.5 | 43 ± 1.6 | 60 ± 4.1 |
| COc1ccccc1N1CCN(CCn2cnc3c2c(=O)n(C)c(=O)n3C)CC1.O=C(O)CC(O)(CC(=O)O)C(=O)O [KMUP-2-citric acid, 7-[2-[4-(2-methoxybenzene)piperazinyl]ethyl]-1,3-dimethylxanthine-Citric acid] | – | 40 ± 3.7 | 71 ± 5.4 |
| Cn1c(=O)c2c(ncn2CCN2CCN(c3ccccc3[N+](=O)[O-])CC2)n(C)c1=O.O=C(O)CC(O)(CC(=O)O)C(=O)O [KMUP-4-citric acid, 7-[2-[4-(2-nitrobenzene)piperazinyl]ethyl]-1,3-dimethylxanthine-Citric acid] | 131 ± 6.7 | 56 ± 3.4 | 78 ± 3.6 |
| Cn1c(=O)c2c(ncn2CCN2CCN(c3ccccc3Cl)CC2)n(C)c1=O.O=C(O)CC(O)(CC(=O)O)C(=O)O [KMUP-1-citric acid, 7-[2-[4-(2-chlorobenzene)piperazinyl]ethyl]-1,3-dimethylxanthine-Citric acid] | 152 ± 13.6 | 43 ± 3.8 | 66 ± 5.2 |
